We go through two molecules from US20160274108A1, “DIAGNOSTIC METHODS FOR PAR4 ANTAGONIST THERAPY” (BRISTOL-MYERS SQUIBB COMPANY, priority 2013, published 2016).

The target in experiment [1] is T1, protease-activated receptor type 4 (PAR4) (Homo sapiens, UniProt Q96RI0).
T1 sequence (Q96RI0 18-385): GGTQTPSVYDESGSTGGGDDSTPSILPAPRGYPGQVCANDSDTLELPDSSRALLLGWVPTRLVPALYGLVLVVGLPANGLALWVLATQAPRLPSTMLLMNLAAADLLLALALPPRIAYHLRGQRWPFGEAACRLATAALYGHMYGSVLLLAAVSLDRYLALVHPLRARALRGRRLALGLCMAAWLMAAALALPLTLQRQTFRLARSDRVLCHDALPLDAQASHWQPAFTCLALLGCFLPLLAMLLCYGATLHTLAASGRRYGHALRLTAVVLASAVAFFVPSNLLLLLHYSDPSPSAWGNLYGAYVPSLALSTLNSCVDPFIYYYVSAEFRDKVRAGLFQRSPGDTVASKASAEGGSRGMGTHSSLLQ
To be noted: abstract of Lee et al., J. Med. Chem., 44(22):3746-3749 (2001); cited from earlier work.

The subject of experiment [2] is platelets. The experiment can be described thus: Platelet activation by whole blood flow cytometry: P-selectin (CD62P) expression. It is filed as cell-based, human. To be noted: PAR1 1 μM final, 501 healthy subjects. On the procedure: (§1) PAR1 and PAR4 agonists were supplied as freeze dried peptides and reconstituted with HEPES buffered saline [HBS, 0.14M NaCl, 5 mM KCl, 1 mM MgSO4, 10 mM HEPES (sodium salt), pH 7.4] to 1 mM concentrations prior to storing in single use aliquots at −80° C. Immediately prior to use PAR1 was thawed and diluted in HBS to 10 μM as a working concentration to give a final assay concentration of 1 μM. Similarly PAR4 was diluted to 100 μM working concentration to give a final assay concentration of 10 μM.
(§2) The antibodies used for flow cytometry were: rabbit FITC-anti-fibrinogen (Dako Ltd, Ely, UK), PE-anti-CD62P and a relevant PE-isotype control (Bristol Institute for Transfusion Science, Bristol, UK). HBS was used for all dilutions.
(§3) Blood was processed within 15 minutes of venesection, with 5 μL of citrated whole blood containing aspirin (100 μM) and hirudin (10 U/mL) being added to 45 μL of HBS containing apyrase (4 U/mL), either FITC-anti-fibrinogen or PE anti-CD62P, and either PAR1 (1 μM final concentration) or PAR4 (10 μM final concentration). […] Platelets were identified by light scatter and results were recorded as the percentage of platelets positive for the relevant activation marker. […]
(Flow cytometry measures light scatter and fluorescence of single cells or particles in a stream.)

For experiment [3], the system named is platelets. The experiment can be described thus: Platelet activation by whole blood flow cytometry: fibrinogen binding. It is filed as cell-based, human. To be noted: PAR1 1 μM final, 501 healthy subjects. On the procedure:
as §1, §2, §3

On to `CCOC(=O)c1ccc(-c2nn(Cc3ccccc3)c3ccccc23)cc1`, for which the “inhibition of PAR4-dependent platelet activation” value in experiment [1] was “selective and potent inhibitor”.
As for “PAR1: PAR1 agonist, freeze dried peptide supplied by Bristol-Myers Squibb; Example 2 control is Compound A, SFFLRR (SEQ ID NO: 39)”, the “P-selectin expression, % positive platelets, median” value in experiment [2] came to 86.8%. Also, in experiment [3], the “fibrinogen binding, % positive platelets, median” value worked out at 19.7%.
